Results reported in US7462636B2, “Broadspectrum substituted benzisoxazole sulfonamide HIV protease inhibitors” (priority 2002, dated 2008).
Like-named read-outs stand apart in the source and are kept apart here.

Key:
[1] = tested on: HIV strain C (protease mutant); assay: Antiviral spectrum, mutant HIV strain C; assay type: cell-based; conditions: FR=EC50(mutant strain)/EC50(HIV-1 strain LAI); calculated averages
Experimental: (§1) HIV- or mock-infected MT4 cells were incubated for five days in the presence of various concentrations of the inhibitor. At the end of the incubation period, all HIV-infected cells have been killed by the replicating virus in the control cultures in the absence of any inhibitor. Cell viability is measured by measuring the concentration of MTT, a yellow, water soluble tetrazolium dye that is converted to a purple, water insoluble formazan in the mitochondria of living cells only. Upon solubilization of the resulting formazan crystals with isopropanol, the absorbance of the solution is monitored at 540 nm. The values correlate directly to the number of living cells remaining in the culture at the completion of the five day incubation. The inhibitory activity of the compound was monitored on the virus-infected cells and was expressed as EC50 and EC90. These values represent the amount of the compound required to protect 50% and 90%, respectively, of the cells from the cytopathogenic effect of the virus. […] Wherever results are reported as e.g. pEC50 or pCC50 values, the result is expressed as the negative logarithm of the result expressed as EC50 or CC50 respectively. […]
(§2) As a measure of the broad spectrum activity of the present compounds, the fold resistance (FR), defined as FR=EC50(mutant strain)/EC50(HIV-1 strain LAI), was determined.

[2] = tested on: HIV strain G (protease mutant); assay: Antiviral spectrum, mutant HIV strain G; assay type: cell-based; conditions: FR=EC50(mutant strain)/EC50(HIV-1 strain LAI); calculated averages
Experimental: as §1, §2

HIV-1 strain LAI = assay: Cellular anti-HIV assay (MT4 cells, MTT), wild type strain; assay type: cell-based
Experimental: The compounds of the present invention were examined for anti-viral activity in a cellular assay. […] The cellular assay was performed according to the following procedure.
HIV- or mock-infected MT4 cells were incubated for five days in the presence of various concentrations of the inhibitor. At the end of the incubation period, all HIV-infected cells have been killed by the replicating virus in the control cultures in the absence of any inhibitor. Cell viability is measured by measuring the concentration of MTT, a yellow, water soluble tetrazolium dye that is converted to a purple, water insoluble formazan in the mitochondria of living cells only. Upon solubilization of the resulting formazan crystals with isopropanol, the absorbance of the solution is monitored at 540 nm. The values correlate directly to the number of living cells remaining in the culture at the completion of the five day incubation. The inhibitory activity of the compound was monitored on the virus-infected cells and was expressed as EC50 and EC90. […] Wherever results are reported as e.g. pEC50 or pCC50 values, the result is expressed as the negative logarithm of the result expressed as EC50 or CC50 respectively.
as §2

[3] = tested on: HIV strain D (protease mutant); assay: Antiviral spectrum, mutant HIV strain D; assay type: cell-based; conditions: FR=EC50(mutant strain)/EC50(HIV-1 strain LAI); calculated averages
Experimental: as §1, §2

[4] = tested on: HIV strain F (protease mutant); assay: Antiviral spectrum, mutant HIV strain F; assay type: cell-based; conditions: FR=EC50(mutant strain)/EC50(HIV-1 strain LAI); calculated averages
Experimental: as §1, §2

[5] = tested on: HIV strain B (protease mutant); assay: Antiviral spectrum, mutant HIV strain B; assay type: cell-based; conditions: FR=EC50(mutant strain)/EC50(HIV-1 strain LAI); calculated averages
Experimental: as §1, §2

[6] = tested on: HIV strain E (protease mutant); assay: Antiviral spectrum, mutant HIV strain E; assay type: cell-based; conditions: FR=EC50(mutant strain)/EC50(HIV-1 strain LAI); calculated averages
Experimental: as §1, §2

[7] = tested on: HIV strain A (protease mutant); assay: Antiviral spectrum, mutant HIV strain A; assay type: cell-based; conditions: FR=EC50(mutant strain)/EC50(HIV-1 strain LAI); calculated averages
Experimental: as §1, §2

[8] = Oral availability in the rat (serum concentration, LC-MS); assay type: in vivo; conditions: both sexes, 10 mg/kg
Experimental: The oral availability of a selected compound was evaluated in a standard set of kinetic experiments, primarily in male and female rats and secondarily in male and female dogs. The compound was formulated as a 20 mg/ml solution or suspension in DMSO, PEG400 or cyclodextin 40% (CD40%) in water. For most experiments in the rat, three dosing groups were formed: 1/single intraperitoneal dose at 20 mg/kg using the DMSO formulation; 2/single oral dose at 20 mg/kg using the PEG400 formulation and 3/single oral dose at 20 mg/kg using the cyclodextrin formulation. In the dog, only the oral route of administration was used. Blood was sampled at regular time intervals after dosing and drug concentrations in the serum were determined using a LC-MS bioanalytical method. Serum concentrations were expressed in […] after normalization to 10 mg/kg. Below, the serum concentration at 30 minutes and at 3 hours is listed as these values reflect the extent of absorption (30′) and the speed of elimination (180′). The oral bioavailability in the rat was examined using DMSO and PEG formulations (cfr supra). The serum concentration following administration of 10 mg/kg of compound 1 was 10.2 ng/ml at 30 min (DMSO) and 22.2 ng/ml (PEG). The intraperitoneal absorption of a dose of 10 mg/kg (DMSO formulation) was 2076 ng/ml 30 minutes (min) following administration and 208 ng/ml 180 min following administration.

[9] = Toxicity on mock-infected MT4 cells (MTT); assay type: cell-based; conditions: human
Experimental: HIV- or mock-infected MT4 cells were incubated for five days in the presence of various concentrations of the inhibitor. At the end of the incubation period, all HIV-infected cells have been killed by the replicating virus in the control cultures in the absence of any inhibitor. Cell viability is measured by measuring the concentration of MTT, a yellow, water soluble tetrazolium dye that is converted to a purple, water insoluble formazan in the mitochondria of living cells only. Upon solubilization of the resulting formazan crystals with isopropanol, the absorbance of the solution is monitored at 540 nm. The values correlate directly to the number of living cells remaining in the culture at the completion of the five day incubation. The inhibitory activity of the compound was monitored on the virus-infected cells and was expressed as EC50 and EC90. These values represent the amount of the compound required to protect 50% and 90%, respectively, of the cells from the cytopathogenic effect of the virus. […] Wherever results are reported as e.g. pEC50 or pCC50 values, the result is expressed as the negative logarithm of the result expressed as EC50 or CC50 respectively.
as §2

Molecule | FR towards mutant C [1] | FR towards mutant G [2] | WT (pEC50) (HIV-1 strain LAI; calculated averages) | FR towards mutant D [3] | FR towards mutant F [4] | FR towards mutant B [5] | FR towards mutant E [6] | FR towards mutant A [7] | concentration at 30 min ([8]; ip, intraperitoneal, DMSO formulation, 30 min following administration, read-out: intraperitoneal absorption (serum concentration)) | concentration at 180 min ([8]; ip, intraperitoneal, DMSO formulation, 180 min following administration, read-out: intraperitoneal absorption (serum concentration)) | concentration at 30 min ([8]; po, oral, DMSO formulation, at 30 min, read-out: serum concentration) | concentration at 30 min ([8]; po, oral, PEG formulation, read-out: serum concentration) | EC50 (HIV-1 strain LAI; Human immunodeficiency virus 1, calculated averages, read-out: WT (pEC50) (converted)) | CC50 at 5 days [9]
5-Methyl-isoxazole-4-carboxylic acid{3-[(3-amino-benzo[d]isoxazole-5-sulfonyl)-isobutyl-amino]-1-benzyl-2-hydroxy-propyl}-amide [Compound 6] | 5.5 | 16 | 6.2 | 16 | 16 | 5.6 | 7.2 | 16 |  |  |  |  |  | 
CC(C)CN(C[C@@H](O)[C@H](Cc1ccccc1)NC(=O)O[C@H]1CO[C@H]2OCC[C@H]21)S(=O)(=O)c1ccc2onc(N)c2c1 [Compound 1, {3-[(3-Amino-benzo[d]isoxazole-5-sulfonyl)-isobutyl-amino]-1-benzyl-2-hydroxy-propyl}-carbamic acid hexahydro-furo[2,3-b]furan-3-yl ester] | 0.49 | 6.9 |  | 0.35 | 0.85 | 0.78 | 0.30 | 0.63 | 2080 ng/mL | 208 ng/mL | 10.2 ng/mL | 22.2 ng/mL | 7.94 nM | > 100000 nM
